Reference: patent publication US20110257208A1, “COMPOUNDS USEFUL AS FAAH MODULATORS AND USES THEREOF” (priority 2008, published 2011)

Target: T1, hFAAH (Homo sapiens, UniProt O00519)
T1 construct: expressed in transfected cells; host or cells: HEK293-TRex (Invitrogen) stably transfected with hFAAH in the pcDNA5-Tet-off vector, or T84 human colon epithelial cells (endogenous hFAAH); used as a microsomal preparation
T1 sequence (O00519 1-579): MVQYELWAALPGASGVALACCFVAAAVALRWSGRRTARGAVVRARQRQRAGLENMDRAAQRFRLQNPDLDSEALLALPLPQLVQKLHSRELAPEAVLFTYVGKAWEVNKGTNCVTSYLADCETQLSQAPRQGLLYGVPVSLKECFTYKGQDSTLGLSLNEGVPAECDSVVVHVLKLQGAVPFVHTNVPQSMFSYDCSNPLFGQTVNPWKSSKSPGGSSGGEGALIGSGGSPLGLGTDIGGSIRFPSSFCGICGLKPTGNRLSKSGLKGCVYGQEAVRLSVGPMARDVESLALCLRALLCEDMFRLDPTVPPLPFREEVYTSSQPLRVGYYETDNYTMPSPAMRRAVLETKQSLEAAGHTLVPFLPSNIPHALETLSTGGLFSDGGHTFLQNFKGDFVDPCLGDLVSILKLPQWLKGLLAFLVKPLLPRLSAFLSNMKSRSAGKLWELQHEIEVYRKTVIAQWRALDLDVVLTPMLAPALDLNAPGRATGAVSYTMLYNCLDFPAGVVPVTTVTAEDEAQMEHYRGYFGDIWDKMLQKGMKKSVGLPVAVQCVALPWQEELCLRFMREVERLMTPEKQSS
Assay: Fluorimetric assay with hFAAH microsomes (enzymatic, fluorescence based)
Assay type: biochemical
Conditions: compound at 1 uM, AA-AMC substrate
In short: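 Microsomes from T84 cells (endogenous hFAAH) or doxycycline-induced HEK293-TRex cells stably expressing hFAAH, 10 μg per well, in 50 mM HEPES pH 7.4, 1 mM EDTA, 1.4 mg/mL BSA with 2 μM AA-AMC. Kinetic fluorescence read (ex 355/em 460 nm, 275 cycles); activity as % inhibition, 7 concentrations in duplicate.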

| SMILES | inhibition at 1 µM [%] |
| --- | --- |
| O=C(CN1CCCCCC1)N1Cc2ncnc(Nc3cnc4ccccc4c3)c2C1 [Compound 52, 2-Azepan-1-yl-1-[4-(quinolin-3-ylamino)-5,7-dihydro-pyrrolo[3,4-d]pyrimidin-6-yl]-ethanone] | < 25 |
| Cc1nc(C)c(CC(=O)N2Cc3ncnc(Nc4cnc5ccccc5c4)c3C2)s1 [Compound 50, 2-(2,4-Dimethyl-thiazol-5-yl)-1-[4-(quinolin-3-ylamino)-5,7-dihydro-pyrrolo[3,4-d]pyrimidin-6-yl]-ethanone] | < 25 |
| CC(C1CCCC1)N1Cc2ncnc(Nc3cnc4ccccc4c3)c2C1 (stereo not drawn) [Compound 37, [6-(1-Cyclopentyl-ethyl)-6,7-dihydro-5H-pyrrolo[3,4-d]pyrimidin-4-yl]-quinolin-3-yl-amine] | > 50 |
| c1ccc2ncc(Nc3ncnc4c3CN(CC3CCCOC3)C4)cc2c1 (stereo not drawn) [Compound 16, Quinolin-3-yl-[6-(tetrahydro-pyran-3-ylmethyl)-6,7-dihydro-5H-pyrrolo[3,4-d]pyrimidin-4-yl]-amine] | > 50 |
| O=S(=O)(c1ccccc1F)N1Cc2ncnc(Nc3cnc4ccccc4c3)c2C1 [Compound 71, [6-(2-Fluoro-benzenesulfonyl)-6,7-dihydro-5H-pyrrolo[3,4-d]pyrimidin-4-yl]-quinolin-3-yl-amine] | > 25 |
| FC(F)(F)CN1Cc2ncnc(Nc3cnc4ccccc4c3)c2C1 [Compound 30, Quinolin-3-yl-[6-(2,2,2-trifluoro-ethyl)-6,7-dihydro-5H-pyrrolo[3,4-d]pyrimidin-4-yl]-amine] | < 25 |
| c1ccc(CN2Cc3ncnc(Nc4cnc5ccccc5c4)c3C2)cc1 [Compound 1, (6-Benzyl-6,7-dihydro-5H-pyrrolo[3,4-d]pyrimidin-4-yl)-quinolin-3-yl-amine] | > 75 |
| c1ccc2ncc(Nc3ncnc4c3CN(CC3CCCCC3)C4)cc2c1 [Compound 2, (6-Cyclohexylmethyl-6,7-dihydro-5H-pyrrolo[3,4-d]pyrimidin-4-yl)-quinolin-3-yl-amine] | > 75 |
| Cc1ncc(CN2Cc3ncnc(Nc4cnc5ccccc5c4)c3C2)s1 [Compound 69, [6-(2-Methyl-thiazol-5-ylmethyl)-6,7-dihydro-5H-pyrrolo[3,4-d]pyrimidin-4-yl]-quinolin-3-yl-amine] | > 50 |
| CN1CCC(CN2Cc3ncnc(Nc4cnc5ccccc5c4)c3C2)CC1 [Compound 27, [6-(1-Methyl-piperidin-4-ylmethyl)-6,7-dihydro-5H-pyrrolo[3,4-d]pyrimidin-4-yl]-quinolin-3-yl-amine] | < 25 |
| O=S(=O)(c1ccc(-c2cnco2)s1)N1Cc2ncnc(Nc3cnc4ccccc4c3)c2C1 [Compound 55, [6-(5-Oxazol-5-yl-thiophene-2-sulfonyl)-6,7-dihydro-5H-pyrrolo[3,4-d]pyrimidin-4-yl]-quinolin-3-yl-amine] | > 25 |
| c1ccc2ncc(Nc3ncnc4c3CN(Cc3nccs3)C4)cc2c1 [Compound 76, Quinolin-3-yl-(6-thiazol-2-ylmethyl-6,7-dihydro-5H-pyrrolo[3,4-d]pyrimidin-4-yl)-amine] | > 25 |
| c1ccc2ncc(Nc3ncnc4c3CN(CC3CCC3)C4)cc2c1 [Compound 21, (6-Cyclobutylmethyl-6,7-dihydro-5H-pyrrolo[3,4-d]pyrimidin-4-yl)-quinolin-3-yl-amine] | > 50 |
| O=S(=O)(Cc1ccccc1)N1Cc2ncnc(Nc3cnc4ccccc4c3)c2C1 [Compound 63, (6-Phenylmethanesulfonyl-6,7-dihydro-5H-pyrrolo[3,4-d]pyrimidin-4-yl)-quinolin-3-yl-amine] | < 25 |
| c1ccc2ncc(Nc3ncnc4c3CN(Cc3cscn3)C4)cc2c1 [Compound 75, Quinolin-3-yl-(6-thiazol-4-ylmethyl-6,7-dihydro-5H-pyrrolo[3,4-d]pyrimidin-4-yl)-amine] | > 25 |
| O=S(=O)(c1ccccc1Cl)N1Cc2ncnc(Nc3cnc4ccccc4c3)c2C1 [Compound 72, [6-(2-Chloro-benzenesulfonyl)-6,7-dihydro-5H-pyrrolo[3,4-d]pyrimidin-4-yl]-quinolin-3-yl-amine] | > 50 |
| CCOc1ccccc1CN1Cc2ncnc(Nc3cnc4ccccc4c3)c2C1 [Compound 100, [6-(2-Ethoxy-benzyl)-6,7-dihydro-5H-pyrrolo[3,4-d]pyrimidin-4-yl]-quinolin-3-yl-amine] | > 75 |
| O=C(NCC1CCCCC1)N1Cc2ncnc(Nc3cnc4ccccc4c3)c2C1 [Compound 46, 4-(Quinolin-3-ylamino)-5,7-dihydro-pyrrolo[3,4-d]pyrimidine-6-carboxylic acid cyclohexylmethyl-amide] | < 25 |
| Cc1noc(C)c1CN1Cc2ncnc(Nc3cnc4ccccc4c3)c2C1 [Compound 67, [6-(3,5-Dimethyl-isoxazol-4-ylmethyl)-6,7-dihydro-5H-pyrrolo[3,4-d]pyrimidin-4-yl]-quinolin-3-yl-amine] | > 25 |
| Cc1cccc(CN2Cc3ncnc(Nc4cnc5ccccc5c4)c3C2)c1C [Compound 87, [6-(2,3-Dimethyl-benzyl)-6,7-dihydro-5H-pyrrolo[3,4-d]pyrimidin-4-yl]-quinolin-3-yl-amine] | > 75 |
| Cc1ccc(C)c(CN2Cc3ncnc(Nc4cnc5ccccc5c4)c3C2)c1 [Compound 89, [6-(2,5-Dimethyl-benzyl)-6,7-dihydro-5H-pyrrolo[3,4-d]pyrimidin-4-yl]-quinolin-3-yl-amine] | > 75 |
| CC(CN1Cc2ncnc(Nc3cnc4ccccc4c3)c2C1)c1ccccc1 (stereo not drawn) [Compound 19, [6-(2-Phenyl-propyl)-6,7-dihydro-5H-pyrrolo[3,4-d]pyrimidin-4-yl]-quinolin-3-yl-amine] | > 75 |
| Clc1ncc(CN2Cc3ncnc(Nc4cnc5ccccc5c4)c3C2)s1 [Compound 91, [6-(2-Chloro-thiazol-5-ylmethyl)-6,7-dihydro-5H-pyrrolo[3,4-d]pyrimidin-4-yl]-quinolin-3-yl-amine] | > 50 |
| CC(C)CCN1Cc2ncnc(Nc3cnc4ccccc4c3)c2C1 [Compound 9, [6-(3-Methyl-butyl)-6,7-dihydro-5H-pyrrolo[3,4-d]pyrimidin-4-yl]-quinolin-3-yl-amine] | > 50 |
